According to patent US20250353852A1, “COMPOUNDS AND COMPOSITIONS THAT INHIBIT PIKFYVE” (Kineta, Inc., priority 2021, published 2025):
pIC50: −log10 of the molar value.

biological target: full-length human PIKFYVE (Homo sapiens (Human), UniProt Q9Y2I7, L932S/Q1183K/Q995L/S1033A/S696N/T998S); assay: PIKfyve biochemical assay (ADP-Glo Kinase assay, Carna Biosciences); details: class symbols
Source text: PIKfyve Biochemical Assay. The biochemical […] inhibition assays were run by Carna Biosciences according to proprietary methodology based on the Promega […] Kinase assay. […] NP_055855.2] was expressed as N-terminal GST-fusion protein (265 kDa) using baculovirus expression system. GST-PIKFYVE was purified by using glutathione sepharose chromatography and used in an ADP-GloTM Kinase assay (Promega). Reactions were set up by adding the test compound solution, substrate solution, ATP solution and kinase solution, each at 4× final concentrations. Reactions were prepared with assay buffer (50 mM MOPS, 1 mM DTT, pH7.2), mixed, and incubated in black 384 well polystyrene plates for 1 hour at room temperature. ADP-Glo^TM reagent was then added for 40 minutes, followed by kinase detection reagent for an additional 40 minutes. The kinase activity was evaluated by detecting relative light units on a luminescence plate reader. […] IC50 values were calculated from concentration vs % inhibition curves by fitting to a four-parameter logistic curve. […] The biochemical […] inhibition assays were run by Carna Biosciences according to proprietary methodology based on the Promega ADP-GloTM Kinase assay. […] GST-PIKFYVE was purified by using glutathione sepharose chromatography and used in an ADP-GIoTM Kinase assay (Promega). Reactions were set up by adding the test compound solution, substrate solution, ATP solution and kinase solution, each at 4× final concentrations. Reactions were prepared with assay buffer (50 mM MOPS, 1 mM DTT, pH7.2), mixed, and incubated in black 384 well polystyrene plates for 1 hour at room temperature. ADP-GIoTM reagent was then added for 40 minutes, followed by kinase detection reagent for an additional 40 minutes. The kinase activity was evaluated by detecting relative light units on a luminescence plate reader. […] IC50 values were calculated from concentration vs % inhibition curves by fitting to a four-parameter logistic curve. […] The same compounds were also tested in both FAB1 and PIKFYVE TDP-43 yeast models.

full-length human PIKFYVE, sequence (Q9Y2I7 whole entry S696N/L932S/Q995L/T998S/S1033A/Q1183K, the tested form may be a part): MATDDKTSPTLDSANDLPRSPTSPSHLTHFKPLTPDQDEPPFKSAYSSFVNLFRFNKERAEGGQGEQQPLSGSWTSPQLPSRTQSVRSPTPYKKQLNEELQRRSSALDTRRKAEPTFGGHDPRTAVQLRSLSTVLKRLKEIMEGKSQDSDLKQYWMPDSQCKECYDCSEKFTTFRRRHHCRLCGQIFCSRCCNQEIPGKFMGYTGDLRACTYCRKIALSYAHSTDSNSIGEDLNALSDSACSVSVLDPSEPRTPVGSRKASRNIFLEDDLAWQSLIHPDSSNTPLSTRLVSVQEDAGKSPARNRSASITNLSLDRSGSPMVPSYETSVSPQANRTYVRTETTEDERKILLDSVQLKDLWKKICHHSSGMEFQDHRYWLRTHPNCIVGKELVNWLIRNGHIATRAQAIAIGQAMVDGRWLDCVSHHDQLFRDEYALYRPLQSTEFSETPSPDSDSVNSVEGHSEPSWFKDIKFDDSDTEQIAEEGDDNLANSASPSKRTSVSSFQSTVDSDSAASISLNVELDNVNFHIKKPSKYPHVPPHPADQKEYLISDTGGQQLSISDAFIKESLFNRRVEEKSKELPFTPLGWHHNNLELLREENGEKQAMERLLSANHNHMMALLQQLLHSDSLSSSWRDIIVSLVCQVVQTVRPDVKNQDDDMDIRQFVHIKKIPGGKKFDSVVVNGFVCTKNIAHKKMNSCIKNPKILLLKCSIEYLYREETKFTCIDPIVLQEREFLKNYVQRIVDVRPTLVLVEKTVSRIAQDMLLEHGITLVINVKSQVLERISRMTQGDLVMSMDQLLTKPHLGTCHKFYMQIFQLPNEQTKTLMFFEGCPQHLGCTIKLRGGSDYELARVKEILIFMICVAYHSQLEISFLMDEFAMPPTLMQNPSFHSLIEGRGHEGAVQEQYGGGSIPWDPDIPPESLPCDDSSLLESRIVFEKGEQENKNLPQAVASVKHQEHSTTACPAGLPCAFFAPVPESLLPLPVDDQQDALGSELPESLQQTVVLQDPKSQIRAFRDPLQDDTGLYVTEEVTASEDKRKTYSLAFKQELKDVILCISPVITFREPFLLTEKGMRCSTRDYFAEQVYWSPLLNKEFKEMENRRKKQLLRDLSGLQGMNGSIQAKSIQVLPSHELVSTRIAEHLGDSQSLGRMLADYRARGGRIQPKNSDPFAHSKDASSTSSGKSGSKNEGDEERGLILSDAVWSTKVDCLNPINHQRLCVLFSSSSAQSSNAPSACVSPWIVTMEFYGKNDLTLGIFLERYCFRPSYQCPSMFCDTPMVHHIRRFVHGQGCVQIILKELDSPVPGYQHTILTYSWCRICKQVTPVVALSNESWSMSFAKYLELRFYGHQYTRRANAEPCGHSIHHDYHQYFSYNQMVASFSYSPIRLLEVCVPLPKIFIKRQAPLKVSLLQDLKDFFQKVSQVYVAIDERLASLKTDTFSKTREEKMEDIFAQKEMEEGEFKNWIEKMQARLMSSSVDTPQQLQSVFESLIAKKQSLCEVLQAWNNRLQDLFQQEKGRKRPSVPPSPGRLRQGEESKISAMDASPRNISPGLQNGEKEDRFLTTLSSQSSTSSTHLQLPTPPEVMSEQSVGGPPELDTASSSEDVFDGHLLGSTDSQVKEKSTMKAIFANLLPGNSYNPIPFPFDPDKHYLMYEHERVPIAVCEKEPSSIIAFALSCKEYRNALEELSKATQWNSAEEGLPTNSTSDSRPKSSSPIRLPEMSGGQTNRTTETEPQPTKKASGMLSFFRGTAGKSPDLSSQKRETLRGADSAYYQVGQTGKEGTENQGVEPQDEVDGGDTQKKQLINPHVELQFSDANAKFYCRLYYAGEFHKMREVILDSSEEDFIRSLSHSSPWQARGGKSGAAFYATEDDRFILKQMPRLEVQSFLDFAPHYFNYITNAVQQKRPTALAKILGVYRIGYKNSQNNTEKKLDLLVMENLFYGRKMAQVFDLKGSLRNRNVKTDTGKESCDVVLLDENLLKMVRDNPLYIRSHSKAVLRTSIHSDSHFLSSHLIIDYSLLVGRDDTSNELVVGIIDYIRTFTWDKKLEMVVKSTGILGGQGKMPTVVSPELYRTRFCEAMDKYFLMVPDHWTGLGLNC

Row | Structure (SMILES) | pIC50
1 | c1cc(-c2cc3nc(-n4ncc5c4CCCC5)cc(N4CCOCC4)n3n2)ccn1 [Compound 86, 4-(2-(pyridin-4-yl)-5-(4,5,6,7-tetrahydro-1H-indazol-1-yl)pyrazolo[1,5-a]pyrimidin-7-yl)morpholine] | 5.00 to 6.00
2 | c1cc(-c2cc3nc(-n4cc5c(n4)COCC5)cc(N4CCOCC4)n3n2)ccn1 [Compound 87, 2-(7-morpholino-2-(pyridin-4-yl)pyrazolo[1,5-a]pyrimidin-5-yl)-2,4,5,7-tetrahydropyrano[3,4-c]pyrazole] | 5.00 to 6.00
3 | c1cc(-c2cc3nc(-n4cc5c(n4)CCOC5)cc(N4CCOCC4)n3n2)ccn1 [Compound 89, 2-(7-morpholino-2-(pyridin-4-yl)pyrazolo[1,5-a]pyrimidin-5-yl)-2,4,6,7-tetrahydropyrano[4,3-c]pyrazole] | 6.00 to 7.00
4 | c1ccc(-c2ccn(-c3cc(N4CCOCC4)n4nc(C5CCCO5)cc4n3)n2)cc1 (stereo not drawn) [Compound 90, 4-(5-(3-phenyl-1H-pyrazol-1-yl)-2-(tetrahydrofuran-2-yl)pyrazolo[1,5-a]pyrimidin-7-yl)morpholine] | 7.00 to 8.00
5 | c1cncc(-c2ccn(-c3cc(N4CCOCC4)n4nc(C5CCCO5)cc4n3)n2)c1 (stereo not drawn) [Compound 92, 4-(5-(3-(pyridin-3-yl)-1H-pyrazol-1-yl)-2-(tetrahydrofuran-2-yl)pyrazolo[1,5-a]pyrimidin-7-yl)morpholine] | 5.00 to 6.00
6 | COc1cccc(-c2ccn(-c3cc(N4CCOCC4)n4nc(C5CCCO5)cc4n3)n2)c1 (stereo not drawn) [Compound 93, 4-(5-(3-(3-methoxyphenyl)-1H-pyrazol-1-yl)-2-(tetrahydrofuran-2-yl)pyrazolo[1,5-a]pyrimidin-7-yl)morpholine] | 7.00 to 8.00
7 | Fc1cccc(-c2ccn(-c3cc(N4CCOCC4)n4nc(C5CCCO5)cc4n3)n2)c1 (stereo not drawn) [Compound 94, 4-(5-(3-(3-fluorophenyl)-1H-pyrazol-1-yl)-2-(tetrahydrofuran-2-yl)pyrazolo[1,5-a]pyrimidin-7-yl)morpholine] | 6.00 to 7.00
8 | c1cn(-c2cc(N3CCOCC3)n3nc(C4CCCO4)cc3n2)nc1C1CCOCC1 (stereo not drawn) [Compound 95, 4-(5-(3-(tetrahydro-2H-pyran-4-yl)-1H-pyrazol-1-yl)-2-(tetrahydrofuran-2-yl)pyrazolo[1,5-a]pyrimidin-7-yl)morpholine] | < 5.00
9 | c1ccc(-n2ccc(-c3cc(N4CCOCC4)n4nc(C5CCCO5)cc4n3)n2)cc1 (stereo not drawn) [Compound 96, 4-(5-(1-phenyl-1H-pyrazol-3-yl)-2-(tetrahydrofuran-2-yl)pyrazolo[1,5-a]pyrimidin-7-yl)morpholine] | 6.00 to 7.00
10 | c1ccc(-c2ccn(-c3cc(N4CCOCC4)n4nc(C5CCOCC5)cc4n3)n2)cc1 [Compound 98, 4-(5-(3-phenyl-1H-pyrazol-1-yl)-2-(tetrahydro-2H-pyran-4-yl)pyrazolo[1,5-a]pyrimidin-7-yl)morpholine] | 6.00 to 7.00
11 | c1c(-n2cc3c(n2)CCOC3)nc2cc(C3CCCO3)nn2c1N1CCOCC1 (stereo not drawn) [Compound 99, 2-(7-morpholino-2-(tetrahydrofuran-2-yl)pyrazolo[1,5-a]pyrimidin-5-yl)-2,4,6,7-tetrahydropyrano[4,3-c]pyrazole] | < 5.00
12 | c1nn(-c2cc(N3CCOCC3)n3nc(C4CCCO4)cc3n2)c2c1COCC2 (stereo not drawn) [Compound 100, 1-(7-morpholino-2-(tetrahydrofuran-2-yl)pyrazolo[1,5-a]pyrimidin-5-yl)-1,4,6,7-tetrahydropyrano[4,3-c]pyrazole] | < 5.00
13 | NC(=O)c1cc(N2CCOCC2)n2nc(-c3ccncc3)cc2n1 [Compound 102, 7-morpholino-2-(pyridin-4-yl)pyrazolo[1,5-a]pyrimidine-5-carboxamide] | 5.00 to 6.00
14 | N#Cc1cc(N2CCOCC2)n2nc(-c3ccncc3)cc2n1 [Compound 103, 7-morpholino-2-(pyridin-4-yl)pyrazolo[1,5-a]pyrimidine-5-carbonitrile] | < 5.00
15 | O=C(/C=C/c1cc(N2CCOCC2)n2nc(-c3ccncc3)cc2n1)c1ccccc1 [Compound 109, (E)-3-(7-morpholino-2-(pyridin-4-yl)pyrazolo[1,5-a]pyrimidin-5-yl)-1-phenylprop-2-en-1-one] | 5.00 to 6.00
16 | c1ccc(C2CC(c3cc(N4CCOCC4)n4nc(-c5ccncc5)cc4n3)CN2)cc1 (stereo not drawn) [Compound 112, 4-(5-(5-phenylpyrrolidin-3-yl)-2-(pyridin-4-yl)pyrazolo[1,5-a]pyrimidin-7-yl)morpholine] | 5.00 to 6.00
17 | O=C(CCCc1cc(N2CCOCC2)n2nc(-c3ccncc3)cc2n1)c1ccccc1 [Compound 113, 4-(7-morpholino-2-(pyridin-4-yl)pyrazolo[1,5-a]pyrimidin-5-yl)-1-phenylbutan-1-one] | 6.00 to 7.00

Row | Structure (SMILES) | pIC50
18 | O=C(/C=C/c1ccccc1)c1cc(N2CCOCC2)n2nc(-c3ccncc3)cc2n1 [Compound 114, 1-(7-morpholino-2-(pyridin-4-yl)pyrazolo[1,5-a]pyrimidin-5-yl)-3-phenylprop-2-en-1-one] | 5.00 to 6.00
19 | CC(C)(C)OC(=O)NC(=N)c1cc(N2CCOCC2)n2nc(-c3ccncc3)cc2n1 [Compound 115, tert-butyl imino(7-morpholino-2-(pyridin-4-yl)pyrazolo[1,5-a]pyrimidin-5-yl)methylcarbamate] | 6.00 to 7.00
20 | CC(C)(C)OC(=O)N1CCN(c2cc(N3CCOCC3)n3nc(-c4ccncc4)cc3n2)C(Cc2ccccc2)C1 (stereo not drawn) [Compound 116, tert-butyl 3-benzyl-4-(7-morpholino-2-(pyridin-4-yl)pyrazolo[1,5-a]pyrimidin-5-yl)piperazine-1-carboxylate] | 5.00 to 6.00
21 | c1ccc(CC2CNCCN2c2cc(N3CCOCC3)n3nc(-c4ccncc4)cc3n2)cc1 (stereo not drawn) [Compound 117, 4-(5-(2-benzylpiperazin-1-yl)-2-(pyridin-4-yl)pyrazolo[1,5-a]pyrimidin-7-yl)morpholine] | 5.00 to 6.00
22 | CN1CCN(c2cc(N3CCOCC3)n3nc(-c4ccncc4)cc3n2)C(Cc2ccccc2)C1 (stereo not drawn) [Compound 118, 4-(5-(2-benzyl-4-methylpiperazin-1-yl)-2-(pyridin-4-yl)pyrazolo[1,5-a]pyrimidin-7-yl)morpholine] | 5.00 to 6.00
23 | c1ccc(N2CC(c3cc(N4CCOCC4)n4nc(-c5ccncc5)cc4n3)C2)cc1 [Compound 121, 4-(5-(1-phenylazetidin-3-yl)-2-(pyridin-4-yl)pyrazolo[1,5-a]pyrimidin-7-yl)morpholine] | < 5.00
24 | c1ccc(CN2CCCC2c2cc(N3CCOCC3)n3nc(-c4ccncc4)cc3n2)cc1 (stereo not drawn) [Compound 124, 4-(5-(1-benzylpyrrolidin-2-yl)-2-(pyridin-4-yl)pyrazolo[1,5-a]pyrimidin-7-yl)morpholine] | 5.00 to 6.00
25 | Cc1cccc(C(=O)COc2cc(N3CCOCC3)n3nc(-c4ccncc4)cc3n2)c1 [Compound 125, 2-((7-morpholino-2-(pyridin-4-yl)pyrazolo[1,5-a]pyrimidin-5-yl)oxy)-1-(m-tolyl)ethan-1-one] | 5.00 to 6.00
26 | CNC(COc1cc(N2CCOCC2)n2nc(-c3ccncc3)cc2n1)c1cccc(C)c1 (stereo not drawn) [Compound 126, N-methyl-2-((7-morpholino-2-(pyridin-4-yl)pyrazolo[1,5-a]pyrimidin-5-yl)oxy)-1-(m-tolyl)ethan-1-amine] | 5.00 to 6.00
27 | c1ccc(-c2nsc(-c3cc(N4CCOCC4)n4nc(-c5ccncc5)cc4n3)n2)cc1 [Compound 127, 4-(5-(3-phenyl-1,2,4-thiadiazol-5-yl)-2-(pyridin-4-yl)pyrazolo[1,5-a]pyrimidin-7-yl)morpholine] | 7.00 to 8.00
28 | c1ccc(-c2nc(-c3cc(N4CCOCC4)n4nc(-c5ccncc5)cc4n3)ns2)cc1 [Compound 128, 4-(5-(5-phenyl-1,2,4-thiadiazol-3-yl)-2-(pyridin-4-yl)pyrazolo[1,5-a]pyrimidin-7-yl)morpholine] | 7.00 to 8.00
29 | c1ccc(-c2nnc(-c3cc(N4CCOCC4)n4nc(-c5ccncc5)cc4n3)o2)cc1 [Compound 130, 4-(5-(5-phenyl-1,3,4-oxadiazol-2-yl)-2-(pyridin-4-yl)pyrazolo[1,5-a]pyrimidin-7-yl)morpholine] | 5.00 to 6.00
30 | c1ccc(-c2cc(N3CCOCC3)n3nc(-c4ccncc4)cc3n2)nc1 [Compound 132] | 6.00 to 7.00
31 | CCOC(=O)Cc1cc(N2CCOCC2)n2nc(-c3ccncc3)cc2n1 [Compound 133, ethyl 2-(7-morpholino-2-(pyridin-4-yl)pyrazolo[1,5-a]pyrimidin-5-yl)acetate] | 5.00 to 6.00
32 | O=C1COC(c2ccccc2)CN1c1cc(N2CCOCC2)n2nc(-c3ccncc3)cc2n1 (stereo not drawn) [Compound 135, 4-(7-morpholino-2-(pyridin-4-yl)pyrazolo[1,5-a]pyrimidin-5-yl)-6-phenylmorpholin-3-one] | 5.00 to 6.00
33 | CN1CC(=O)N(c2cc(N3CCOCC3)n3nc(-c4ccncc4)cc3n2)CC1c1ccccc1 (stereo not drawn) [Compound 136, 4-methyl-1-(7-morpholino-2-(pyridin-4-yl)pyrazolo[1,5-a]pyrimidin-5-yl)-5-phenylpiperazin-2-one] | 5.00 to 6.00
